Assay results reported in US20050009030A1, “Histone deacetylase: novel molecular target of neurotoxicity” (priority 2002, published 2005).

Test system: rat cerebellar granule cells
Assay: Excitotoxicity in rat cerebellar granule cells induced by NMDA/serine or kainate, measured by MTT test
Type: cell-based
Details: excitotoxicity induced by 100 μM NMDA and 10 μM serine, or by 50 μM kainate; 30 to 40% toxicity by MTT tests
Protocol: For this example, rat cerebellar granule cells were placed in culture, according to techniques known to those skilled in the art. Excitotoxicity was induced in these cells by two types of treatment: firstly, by the joint administration of 100 μM NMDA (N-Methyl-D-aspartic acid) and 10 μM serine, and secondly by administration of 50 μM kainate. Under the experimental conditions adopted, 30 to 40% toxicity was observed and measured using MTT tests, known to those skilled in the art.

CC(/C=C/C(=O)NO)=C\[C@@H](C)C(=O)c1ccc(N(C)C)cc1 [trichostatin A]
Inhibition of excitotoxicity: Inhibition of excitotoxicity can be demonstrated
